According to patent US20040204746A1, “Enhanced bioavailability of nutrients, pharmaceutical agents, and other bioactive substances through laser resonant homogenization or modification of molecular shape or crystalline form” (priority 1999, published 2004):

What was measured:
murine macrophages [1] = assay: Nitrite (nitric oxide) production by LPS-stimulated murine macrophages; assay type: cell-based; details: 24 hours; for nitric oxide byproducts compared with control untreated Arg #4: 120 mcg/ml; for Nitrites: determined from optical density; for Nitrites / Mean O.D. ± S.D.: 120 mcg/ml arginine, LPS 1 ng/ml; for Mean O.D. ± S.D.: optical density at 540 nm
Procedure: Paracelsian in Ithaca, N.Y., an outside independent lab, performed the following bioassays. Each arginine sample was added to 12 wells of murine macrophages to achieve a concentration of 120 mcg/ml. This is the estimated serum concentration for a 70 Kg person after ingesting a 6-gram serving of arginine, a level observed in numerous clinical studies to be associated with a wide range of physiologic benefits. LPS at 1 ng/ml was added to each well and the cells were incubated for 24 hours. The nitrite concentration in each well's supernatant was determined 24 hours after initiation of treatment as a relative measure of nitric oxide production.
The results are listed in order of relative nitrite production, from greatest to least. The first column is the Arg #, the second the mean plus or minus the standard deviation of the optical density measurement at 540 nm, a measure of nitrite concentration, and the third column the relative production of nitrites expressed in micrograms per ml as determined from optical density.

[2] = test system: person with relapsing lupus; assay: Case report: relapsing lupus treated with the methylation formula; assay type: in vivo, human; details: before the formula
Description: The exemplary patient had suffered with relapsing lupus for several years. At the time of entry into the methylation formula studies of EXAMPLE 6, they had experienced a relapse of severe disease for several months.
Their disease was characterized by exquisitely tender blistering and ulcerating lesions on their hands and feet that made it difficult to walk or open a cabinet door without severe pain. Their skin was pallid, they were extremely fatigued with a chronic low energy state, and had suffered extensive hair loss. Their sedimentation rate, a marker for systemic inflammation, was highly elevated at 99, whereas a normal level would be 0-30. […] They declined the use of corticosteroids due to severe treatment side effects during a prior relapse.
The subject was randomized to the placebo control group and for 3 months had no improvement in condition. In the second phase of the study, they were placed on a high dose of the methylation formula of 6 grams of laser treated betaine plus cofactors daily. […]
The subject continued on a lower dose of the laser treated methylation formula for 5 more months, reduced to 1-2 grams of the laser treated betaine plus cofactors. […] At the end of fifth month of lower dose treatment, their sedimentation rate had dropped to the very low normal value of 1, the lowest level ever recorded for them.

[3] = 1600 mg per day, cited from earlier work
[4] = test system: subject with osteoarthritis; assay: Pilot test: blood SAMe level and knee pain in a subject with osteoarthritis; assay type: in vivo, human
Description: As a pilot test, a subject with osteoarthritis had blood SAMe levels measured while taking SAMe and then while taking a betaine formulation. […] On this level of SAMe ingestion for three months, their blood SAMe level was 4.9 (the normal range for this lab is 4.2-8.2). At this time, SAMe was discontinued and they started a methylation formula with one gram of laser treated betaine plus laser treated metabolic cofactors. The betaine and metabolic co-factors were in the same ratios as in the double blind clinical study formula to be described below.

[5] = test system: subjects that had just survived a first myocardial infarction; details: betaine 9 grams daily plus vitamin B12, liver extract, creatine precursor; placebo 25%; cited from earlier work
liver SAMe = details: animal studies; cited from earlier work
murine macrophages [6] = assay: TNF-alpha production by Echinacea-stimulated murine macrophages (ELISA); assay type: cell-based; details: 24 hours, samples at 20 mg/ml with Echinacea
Procedure: An independent outside lab, Paracelsian in Ithaca, N.Y., performed the following bioassays. A standardized Echinacea sample alone or with 20 mg/ml of Samples 1, 2, or 3 were incubated in the tissue culture media of triplicate wells of murine macrophages for 24 hours after Echinacea stimulation and then assayed for tumor necrosis factor-alpha (TNF-alpha) production in triplicate ELISA wells. Positive controls with lipopolysaccharide (LPS) at 1 ng/ml and negative controls were also assayed in the same manner.
Those skilled in the art will appreciate that the use of murine macrophages simulates the body's immune response. Adding the herb Echinacea provides a similar response to that of an immune system that is being irritated. A TNF-alpha reading is a good marker for the extent of inflammation. Thus a substance that causes a significant increase in TNF-alpha in the macrophages can be expected to create substantial inflammation in a human body—especially a body suffering from an autoimmune disease such as inflammatory bowel disease, as well as other physiological problems such as systemic lupus erythematosus, rheumatoid arthritis and food allergies.

Molecule	nitric oxide byproducts compared with control untreated Arg #4 (murine macrophages [1])	Nitrites (murine macrophages [1]) [micrograms per ml]	Mean O.D. ± S.D. (murine macrophages [1])	further results
N=C(N)NCCC[C@H](N)C(=O)O [Arg #1, L-arginine]	statistically significantly less nitric oxide byproducts	10.6	.215 ± .007	–
N=C(N)NCCC[C@H](N)C(=O)O [Arg #2, L-arginine]	statistically significantly less nitric oxide byproducts	10.8	.219 ± .008	–
N=C(N)NCCC[C@H](N)C(=O)O [Arg #3, L-arginine]	statistically significantly more nitric oxide byproducts	12.0	.232 ± .010	–
N=C(N)NCCC[C@H](N)C(=O)O [Arg #4, L-arginine]	–	11.4	.224 ± .006	–
CCN(CCO)CCCC(C)Nc1ccnc2cc(Cl)ccc12 (stereo not shown) [Plaquenil]	–	–	–	relief of lupus symptoms [2]: did little to relieve their symptoms
C[S+](CC[C@H](N)C(=O)O)C[C@H]1O[C@@H](n2cnc3c(N)ncnc32)[C@H](O)[C@@H]1O (stereo partly shown) [SAMe, S-adenosyl-methionine]	–	–	–	side effects [3]: essentially free of side effects; onset of anti-depressant effects ([3]; tricyclics 4-6 weeks): within one week; blood SAMe level ([4]; 800 mg of SAMe daily for three months, normal range 4.2-8.2): 4.9; knee pain ([4]; osteoarthritis): moderate degree of relief
C[N+](C)(C)CC(=O)O [betaine, N,N,N-trimethylglycine]	–	–	–	mortality after one year [5]: no mortality; rise of liver SAMe levels (liver SAMe): up to fourfold
lipopolysaccharide [LPS 1 ng/ml Control]	–	–	–	TNF-alpha ± S.D. (murine macrophages [6]): 2863 ± 185.7
